From article PMC9271885 (eBioMedicine, 2022)
Where “and” joins values, the source holds several entries; their conditions need not be identical. Equal values may be shown once. Read-outs that look alike come from different tables or passages of the source.

Experiments:
in vitro = assay: in vitro
Procedure: (§1) One day prior to infection, 96-well culture plates were seeded with 5×10^4 Vero E6 or Caco-2 cells in 100µL assay medium per well (containing 2.5% FCS). […] After 15min, a preset amount of virus diluted in 25µL of assay medium was added to the wells. This quantity of virus was calibrated so that the viral replication was still in the exponential growth phase for the readout, as previously described, [28], [29] which correspond here to 150 TCID50 per well. Four “cell control” wells were supplemented with 50µL of assay medium without any compounds or virus. On each culture plate, a positive control compound (Remdesivir, BLDpharm) was added in duplicate with eight 2-fold serial dilutions (0.16µM to 20µM). Plates were incubated for 2 days at 37°C prior to quantification of the viral genome by real-time RT-PCR as described below. For the determination of the 50% cytotoxic concentrations (CC50; compound concentration required to reduce by 50% cell viability), the same culture conditions were used, without addition of the virus, and cell viability was measured using CellTiter Blue® (Promega) following manufacturer's instructions. EC50, EC90 and CC50 were determined using logarithmic interpolation as previously described.[28] The selectivity index of the compounds was calculated as the ratio of the CC50 over the EC50.

[1] = Clinical course of the disease in infected hamsters (normalized weight, clinical signs); type: in vivo, Syrian hamsters
Procedure: Three-week-old female Syrian hamsters were provided by Janvier Labs (SPF status). Animals were maintained in ISOcage P - Bioexclusion System (Techniplast) with unlimited access to water/food and 14h/10h light/dark cycle. A wooden gnawing block and extra bedding material was provided as cage enrichment. Animals were weighed and monitored daily for the duration of the study to detect the appearance of any clinical signs of illness/suffering. General anesthesia was obtained with isoflurane (Isoflurin®, Axience). Euthanasia, which was also realized under general anesthesia, was performed by cervical dislocation.
Groups of 6 hamsters were intranasally infected with 10^4 TCID50 of virus. a Experimental timeline. b, f, j Viral replication in lung based on infectious titers (measured using a TCID50 assay) expressed in TCID50/g of lung (n=6 animals/group). c, g, k Viral replication in lung based on viral RNA yields (measured using an RT-qPCR assay) expressed in viral genome copies/g of lung (n=6 animals/group). d, h, l Plasma viral loads (measured using an RT-qPCR assay) are expressed in viral genome copies/mL of plasma (the dotted line indicates the detection threshold of the assay) (n=6 animals/group). e, i, m Clinical course of the disease (n=6 animals/group). Normalized weight at day n was calculated as follows: % of initial weight of the animal at day n. Data represent mean ± SD (Details in Supplementary Data 2).

SARS-CoV-2 [2] = assay: microbe, parasite or virus in culture; type: cell-based
SARS-CoV-2 [3] = assay: microbe, parasite or virus in culture; type: cell-based; conditions: Severe acute respiratory syndrome coronavirus 2, 48 h; Caco-2 cells, viral RNA, 2 days incubation
[4] = Population pharmacokinetic modelling and simulation of TIZ in hamster (LC-MS/MS, NONMEM); conditions: in vivo
Procedure: At each time point, approximate 80µl of blood were collected from the submandibular vein or the saphenous vein of hamsters. All samples were transferred into commercial K2-EDTA tubes, placed on ice until processed for plasma extraction by centrifugation and stored at −70°C before analysis. A LC-MS/MS-AI Triple Quad 5500 was used to determine TIZ concentrations. The mobile phase was a gradient of 0.1% formic acid (FA) in water and 0.1% of FA in acetonitrile (ACN), the column was an ACQUITY UPLC HSS T3 1.8 μm 2.1 × 50mm. For mass spectrometry a positive electrospray ionization was used, and a selected reaction monitoring was set to select TIZ: [M+H]+m/z: 266.0 / 121.2 and dexamethasone: [M+H]+m/z: 393.0 / 373.1 as internal standard.
Pharmacokinetic profiles of TIZ in hamster were analyzed using a nonlinear mixed-effects modelling approach. The population pharmacokinetics analysis was performed using NONMEM® version 7.4. The final pharmacokinetic model was established by evaluating one-, two-, and three-compartment disposition models, as well as several different absorption models (i.e. first-order absorption, first-order absorption with lag time, and transit absorption models). The inter-individual variabilities of pharmacokinetic parameters were implemented as a log-normal distribution and the residual unexplained variability was modelled as an exponential error.

Vero E6 cells = assay: in vitro; conditions: African green monkey, 2 days
Procedure: as §1

[5] = Nitazoxanide IN 2.8mg/kg/day TID, inoculum 104 TCID50, sacrifice day 3, Figure 5, individual animals
[6] = Nitazoxanide IN 2.8mg/kg/day TID, inoculum 104 TCID50, sacrifice day 3, Figure SF 2, individual animals
[7] = Nitazoxanide per os 500mg/kg/day BID, inoculum 104 TCID50, sacrifice day 3, Figure 3, individual animals
[8] = Nitazoxanide per os 500mg/kg/day BID, inoculum 104 TCID50, sacrifice day 5, Figure 3, individual animals
[9] = Nitazoxanide per os 750mg/kg/day BID, inoculum 104 TCID50, sacrifice day 3, Figure 3, individual animals
[10] = Severe acute respiratory syndrome coronavirus 2, Vero C1008, 48 h, Vero E6 cells, viral RNA, 2 days incubation
[11] = Severe acute respiratory syndrome coronavirus 2, Vero C1008, 48 h, Vero E6 cells, viral RNA, 2 days incubation, read-out: EC50

## CC(=O)Oc1ccccc1C(=O)Nc1ncc([N+](=O)[O-])s1 [NTZ, Nitazoxanide]
In vitro; African green monkey, CC50, Vero E6 cells, no virus
  CC50 at 2 days: > 60 µM
In vitro; human
  CC50 at 2 days: 9.15 µM
[1]; NTZ 2.8mg/kg/day TID intranasal, 1 to 3 dpi, first experiment
  mean normalized weight vs untreated animals: significantly lower than that of untreated animals
[1]; NTZ 2.8mg/kg/day TID intranasal, 1 to 3 dpi, repeated experiment
  mean normalized weight vs untreated animals: significantly lower than that of untreated animals
[1]; NTZ 500mg/kg/day BID oral for 3 days, at 3 dpi
  mean normalized weight vs untreated animals: significantly lower than that of untreated animals
[1]; NTZ 500mg/kg/day BID oral for 4 days, followed to 5 dpi
  clinical signs of illness/suffering compared to untreated animals: did not show any clinical signs of illness/suffering
[1]; NTZ 750mg/kg/day TID oral for 3 days, at 2 dpi
  mean normalized weight vs untreated animals: significantly lower than that of untreated animals
[1]; [5]
  Normalized weights Day 0: 100
  Normalized weights Day 1: 90.2 and 91.4 and 94.7 and 92.3 and 86.3 and 91.5
  Normalized weights Day 2: 81.4 and 83.1 and 86.9 and 88.1 and 80.0 and 82.4
  Normalized weights Day 3: 70.4
[1]; [6]
  Normalized weights Day 0: 100
  Normalized weights Day 1: 92.6 and 97.1 and 95.9 and 101.1 and 97.4 and 94.0
  Normalized weights Day 2: 84.7 and 91.2 and 89.0 and 92.2 and 87.0 and 85.8
[1]; [7]
  Normalized weights Day 0: 100
  Normalized weights Day 1: 103.3 and 103.7 and 101.9 and 97.1 and 103.5 and 104.5
  Normalized weights Day 2: 100.2 and 95.2 and 98.6 and 92.0 and 97.9 and 99.6
  Normalized weights Day 3: 97.9 and 94.1 and 93.4 and 93.2
[1]; [8]
  Normalized weights Day 0: 100
  Normalized weights Day 1: 103.8 and 103.9 and 104.9 and 104.4 and 104.6 and 102.8
  Normalized weights Day 2: 96.9 and 95.0 and 102.9 and 95.3 and 100.2
  Normalized weights Day 3: 96.2 and 96.1
  Normalized weights Day 4: 83.8
  Normalized weights Day 5: 98.6 and 90.9 and 91.2 and 79.5 and 92.9
[1]; [9]
  Normalized weights Day 0: 100
  Normalized weights Day 1: 102.2 and 103.1 and 105.8 and 99.4 and 106.0 and 101.2
  Normalized weights Day 2: 95.2 and 96.5 and 95.6 and 90.1 and 90.2
  Normalized weights Day 3: 92.7
[1]; histopathology experiment, NTZ 500mg/kg/day BID oral, at 3 dpi
  mean normalized weight vs untreated animals: significantly lower than that of untreated animals
[1]; infected hamsters, nitazoxanide 500mg/kg/day per os BID, Day 0, individual animals
  Normalized weights Day 0: 100
[1]; infected hamsters, nitazoxanide 500mg/kg/day per os BID, Day 1, individual animals
  Normalized weights Day 1: 100.5 and 102.7 and 103.7 and 103.5
[1]; infected hamsters, nitazoxanide 500mg/kg/day per os BID, Day 2, individual animals
  Normalized weights Day 2: 94.1 and 99.3 and 98.2
[1]; infected hamsters, nitazoxanide 500mg/kg/day per os BID, Day 3, individual animals
  Normalized weights Day 3: 92.9 and 96.2
[1]; infected hamsters, nitazoxanide 500mg/kg/day per os BID, Day 4, individual animals
  Normalized weights Day 4: 86.9
[1]; infected hamsters, nitazoxanide 500mg/kg/day per os BID, Day 5, individual animals
  Normalized weights Day 5: 90.1 and 88.3 and 85.4 and 93.9
SARS-CoV-2 [2]; [10]
  EC90: 10.3 µM
SARS-CoV-2 [2]; [11]
  EC50: 3.19 µM
SARS-CoV-2 [2]; Vero E6 cells, viral RNA, 2 days incubation, read-out: EC50
  EC50: < 5 µM
SARS-CoV-2 [3]
  EC90: 1.75 µM
[4]
  V/F volume of distribution of the central compartment, population estimate (%RSE): 0.128 (48.3) L
[4]; po
  CL/F oral clearance, population estimate (%RSE): 0.651 (11.9) L/h

## O=C(Nc1ncc([N+](=O)[O-])s1)c1ccccc1O [TIZ, tizoxanide]
In vitro; African green monkey, CC50
  CC50 at 2 days: > 60 µM
Vero E6 cells
  CC50: > 100 µM
SARS-CoV-2 [2]; [10]
  EC90: 9.27 µM
SARS-CoV-2 [2]; [11]
  EC50: 7.48 µM
SARS-CoV-2 [2]; Severe acute respiratory syndrome coronavirus 2, Vero C1008, read-out: EC50 expressed in µg/mL
  EC50: 1.98 µg/mL
SARS-CoV-2 [2]; Vero E6 cells
  Selectivity Index (SI=CC50/EC50): higher than 13.3
[4]; Syrian, po
  Tmax: 16.6 min
  half-life: 48 min
